The values that follow come from patent publication US20240317749A1, “THERAPEUTIC COMPOUNDS” (priority 2021, published 2024).

Values after ≈ are worked out from the molar mass of the structure shown.

One test concerns P. aeruginosa ATCC 27853. Put plainly: MIC assay, CLSI broth microdilution in CAMH broth. In kind it is cell-based, Pseudomonas aeruginosa. The settings on record: P. aeruginosa ATCC 278538. The protocol:
(§1) MIC assays for various Gram-negative and Gram-positive strains were conducted in accordance with the CLSI guidelines for broth microdilution. A 96-well plate containing CAMH broth with 2-fold serial dilution of compounds was inoculated with log-phase bacterial at 5×10^5 CFU/mL. The final volume in each well was 100 μL. Each compound was tested in duplicate. The microtiter plates were incubated in an aerobic environment for 18 hours at 37° C. Then the bacterial growth was tested by reading the plate with a SpectraMax iD5 plate reader (Molecular Devices, Inc.) at 600 nm. The MIC was defined as the lowest compound concentration that inhibited bacteria growth.
(§2) The following Gram-negative and Gram-positive strains were used in the aerobic MIC procedure: • P. aeruginosa ATCC 27853 • A. baumannii ATCC 19606 • E. coli ATCC 25922 • E. coli W4573 • E. coli N43 • K. pneumoniae ATCC 10031 • K. pneumoniae ATCC 13883 • S. sonnei ATCC 29930 • P. mirabilis ATCC 29906 • Methicillin-susceptible S. aureus (MSSA) ATCC 19636 • Methicillin-resistant S. aureus (MRSA) ATCC 33951

A further test deals with E. coli ATCC 25922. In words: MIC assay, CLSI broth microdilution in CAMH broth. The format is cell-based, Escherichia coli. The protocol: as §1, §2
On the technique in general: Broth dilution looks for growth in wells or tubes with falling amounts of substance.

The next test has as its system E. coli N43. In words: MIC assay, CLSI broth microdilution in CAMH broth. The format is cell-based, Escherichia coli. The protocol: as §1, §2
The subject of the next test is E. coli W4573. Put plainly: MIC assay, CLSI broth microdilution in CAMH broth. In kind it is cell-based, Escherichia coli. The protocol: as §1, §2
The test system of a further test is K. pneumoniae ATCC 10031. Put plainly: MIC assay, CLSI broth microdilution in CAMH broth. The format is cell-based, Klebsiella pneumoniae. The settings on record: K. pneumonias ATCC 10031. The protocol:
as §1, §2

The next test relates to K. pneumoniae ATCC 13883. In words: MIC assay, CLSI broth microdilution in CAMH broth. In kind it is cell-based, Klebsiella pneumoniae. The settings on record: K. pneumonias ATCC 13883. The protocol:
as §1, §2

Another test has as its system P. mirabilis ATCC 29906. In words: MIC assay, CLSI broth microdilution in CAMH broth. In kind it is cell-based, Proteus mirabilis. The protocol:
as §1, §2

The test system of test [1] is Methicillin-susceptible S. aureus (MSSA) ATCC 19636. Put plainly: MIC assay, CLSI broth microdilution in CAMH broth. The format is cell-based, Staphylococcus aureus. On the procedure: as §1, §2
The subject of test [2] is Methicillin-resistant S. aureus (MRSA) ATCC 33591. Put plainly: MIC assay, CLSI broth microdilution in CAMH broth. The format is cell-based, Staphylococcus aureus. The protocol:
as §1, with “growth. […]” for “growth.”

The subject of test [3] is N. gonorrhoeae ATCC 49226. In words: MIC assay for N. gonorrhoeae, broth microdilution in Todd-Hewitt (TH) broth. The settings on record: Neisseria gonorrhoeae, ATCC49226; Antibacterial Activity against N. gonorrhoeae ATCC 49226 in TH. In kind it is cell-based. The text has this: MIC assays for N. gonorrhoeae were done using the ATCC 49226 strain. The procedure guidelines recommended by the Clinical and Laboratory Standards Institute (CLSI) for the broth microdilution MIC assay were modified by substituting […]. Also, the recommended bacterial inoculum was modified to meet the high inoculum demands needed for N. gonorrhoeae growth. A 96-well plate containing TH broth with 2-fold serial dilution of compounds was inoculated with log-phase bacterial at 2.5×10^7 CFU/mL. The final volume in each well was 200 μL. Each compound was tested in duplicate. The microtiter plates were incubated in an […] environment for 24 hours at 37° C. using the candle jar technique. Then the bacterial growth was tested by reading the plate with a SpectraMax iD5 plate reader (Molecular Devices, Inc.) at 600 nm. The MIC was defined as the lowest compound concentration that inhibited bacteria growth.

`CC[C@H]1OC(=O)[C@H](C)[C@@H](O[C@H]2C[C@@](C)(OC)[C@@H](O)[C@H](C)O2)[C@H](C)[C@@H](O[C@@H]2O[C@H](C)C[C@H](N(C)C)[C@H]2O)[C@](C)(O)C[C@@H](C)CN(C)[C@H](C)[C@@H](O)[C@]1(C)O` [AZM, azithromycin, reference compound]: the “Intrinsic MIC in CAMH” value was 64¤ with P. aeruginosa ATCC 27853; 8¤ with E. coli ATCC 25922; 1¤ in the test with E. coli N43; 4¤ in the test with E. coli W4573; 2¤ in the test on K. pneumoniae ATCC 10031; 32¤ in the test with K. pneumoniae ATCC 13883. In addition, the “Intrinsic MIC in CAMH” value in the test on P. mirabilis ATCC 29906 is 64¤; in [1], 1¤; in [2], 1¤.

Broadly, the MIC is the lowest concentration that inhibits growth of the organism. In turn, `Nc1nc(N)c2ccc3c(ccn3Cc3ccc(Br)cc3)c2n1` [Example 2, 7-(4-bromobenzyl)-7H-pyrrolo[2,3-h]quinazoline-2,4-diamine] gave an MIC in [3] of 2 µg/mL (≈ 5.43 µM). Further, the “Intrinsic MIC in CAMH” value in the test on P. aeruginosa ATCC 27853 is reported as >128¤; in the test with E. coli ATCC 25922, 2¤; with E. coli N43, ≤0.25¤; with E. coli W4573 it was 1¤; in the test on K. pneumoniae ATCC 10031, ≤0.25¤; in the test on K. pneumoniae ATCC 13883, 4¤. In addition, the “Intrinsic MIC in CAMH” value with P. mirabilis ATCC 29906 is listed as 4¤; in test [1], ≤0.25¤; in [2] it was ≤0.25¤.

Molecule `Nc1nc(N)c2ccc3c(ccn3Cc3cccc(Br)c3)c2n1` [Example 3, 7-(3-bromobenzyl)-7H-pyrrolo[2,3-h]quinazoline-2,4-diamine] yielded a minimal inhibitory concentration (MIC) in [3] of 0.5 µg/mL (≈ 1.36 µM). For the same molecule, the “Intrinsic MIC in CAMH” value with P. aeruginosa ATCC 27853 was >64¤; with E. coli ATCC 25922, 32¤; in the test on E. coli N43 it was 1¤; with E. coli W4573 it was >64¤; in the test on K. pneumoniae ATCC 10031 it was 4¤; in the test with K. pneumoniae ATCC 13883, >64¤. The “Intrinsic MIC in CAMH” value was >64¤ in the test on P. mirabilis ATCC 29906, 2¤ in test [1] and 2¤ in test [2].

In the case of `Nc1nc(N)c2ccc3c(ccn3Cc3ccccc3Br)c2n1` [Example 4, 7-(2-bromobenzyl)-7H-pyrrolo[2,3-h]quinazoline-2,4-diamine], in [3], the MIC is 2 µg/mL (≈ 5.43 µM). For the same molecule, the “Intrinsic MIC in CAMH” value in the test with P. aeruginosa ATCC 27853 is recorded as >64¤; in the test on E. coli ATCC 25922 it was 4¤; with E. coli W4573, 2¤; in the test on K. pneumoniae ATCC 10031, <0.125¤; in the test on K. pneumoniae ATCC 13883, 8¤; with P. mirabilis ATCC 29906, >64¤. The “Intrinsic MIC in CAMH” value in [1] and in test [2] was ≤0.125¤ throughout.

The molecule `N#Cc1cccc(Cn2ccc3c4nc(N)nc(N)c4ccc32)c1` [Example 6, 3-((2,4-diamino-7H-pyrrolo[2,3-h]quinazolin-7-yl)methyl)benzonitrile] returned a minimum inhibitory concentration (MIC) in test [3] of 4 µg/mL (≈ 12.7 µM). For the same molecule, the “Intrinsic MIC in CAMH” value with P. aeruginosa ATCC 27853 is recorded as >64¤; in the test with E. coli ATCC 25922, 4¤; with E. coli N43 it was ≤0.015¤; with E. coli W4573 it was 4¤; in the test on K. pneumoniae ATCC 10031 it was ≤0.125¤; in the test with K. pneumoniae ATCC 13883, 16¤. The “Intrinsic MIC in CAMH” value with P. mirabilis ATCC 29906 is >64¤; in [1], 0.5¤; in test [2], 0.5¤.

In test [3], `Nc1nc(N)c2ccc3c(ccn3Cc3ccc(C(F)(F)F)cc3)c2n1` [Example 7, 7-(4-(trifluoromethyl)benzyl)-7H-pyrrolo[2,3-h]quinazoline-2,4-diamine] had an MIC of 2 µg/mL (≈ 5.6 µM). For the same molecule, the “Intrinsic MIC in CAMH” value with P. aeruginosa ATCC 27853 is reported as >64¤; in the test with E. coli ATCC 25922, 2¤; with E. coli N43, ≤0.015¤; in the test with E. coli W4573 it was 2¤; in the test with K. pneumoniae ATCC 10031, ≤0.125¤; in the test on K. pneumoniae ATCC 13883 it was 8¤. Also, the “Intrinsic MIC in CAMH” value is on record as >64¤ with P. mirabilis ATCC 29906, ≤0.25¤ in [1] and ≤0.25¤ in [2].

For the molecule `Nc1nc(N)c2ccc3c(ccn3Cc3ccc(C(=O)c4ccccc4)cc3)c2n1` [Example 16, (4-((2,4-diamino-7H-pyrrolo[2,3-h]quinazolin-7-yl)methyl)phenyl)(phenyl)methanone], the lowest concentration to inhibit growth in [3] (MIC) was 4 µg/mL (≈ 10.2 µM). Moreover, the “Intrinsic MIC in CAMH” value with P. aeruginosa ATCC 27853 was >64¤; with E. coli ATCC 25922, 4¤; with E. coli N43, ≤0.015¤; in the test with E. coli W4573, 2¤; in the test on K. pneumoniae ATCC 10031, ≤0.125¤; in the test with K. pneumoniae ATCC 13883, >64¤. Further, the “Intrinsic MIC in CAMH” value was >64¤ with P. mirabilis ATCC 29906, ≤0.25¤ in test [1] and ≤0.25¤ in test [2].

`Nc1nc(N)c2ccc3c(ccn3CC3CCCCC3)c2n1` [Example 27, 7-(cyclohexylmethyl)-7H-pyrrolo[2,3-h]quinazoline-2,4-diamine] displayed an MIC in [3] of 4 µg/mL (≈ 13.5 µM). The “Intrinsic MIC in CAMH” value with P. aeruginosa ATCC 27853 is reported as >64¤; in the test with E. coli ATCC 25922 it was 4¤; in the test with E. coli W4573, 2¤; in the test on K. pneumoniae ATCC 10031, <0.125¤; in the test with K. pneumoniae ATCC 13883 it was 4¤; with P. mirabilis ATCC 29906 it was >64¤. The “Intrinsic MIC in CAMH” value in [1] and in [2] was ≤0.125¤ in each case.

The molecule `N#Cc1cc(F)ccc1-c1ccc(Cn2ccc3c4nc(N)nc(N)c4ccc32)cc1` [Example 37, 4′-((2,4-diamino-7H-pyrrolo[2,3-h]quinazolin-7-yl)methyl)-4-fluoro-[1,1′-biphenyl]-2-carbonitrile] yielded an MIC in test [3] of 1 µg/mL (≈ 2.45 µM). The “Intrinsic MIC in CAMH” value was >64¤ with P. aeruginosa ATCC 27853; <0.125¤ with E. coli N43; 8¤ with E. coli W4573; 0.25¤ in the test with K. pneumoniae ATCC 10031; >64¤ in the test on K. pneumoniae ATCC 13883; >64¤ in the test with P. mirabilis ATCC 29906. Also, the “Intrinsic MIC in CAMH” value in [1] and in test [2] was 0.125¤ in each case.

As to `Nc1nc(N)c2ccc3c(ccn3Cc3ccc(C#Cc4ccccc4)cc3)c2n1` [Example 43, 7-(4-(phenylethynyl)benzyl)-7H-pyrrolo[2,3-h]quinazoline-2,4-diamine], in test [3], the minimum inhibitory concentration (MIC) is above 64 µg/mL. The “Intrinsic MIC in CAMH” value in the test with P. aeruginosa ATCC 27853 was >64¤; in the test with E. coli N43, 32¤; in the test on E. coli W4573 it was >64¤; with K. pneumoniae ATCC 10031 it was >64¤; in the test with K. pneumoniae ATCC 13883, >64¤; in the test on P. mirabilis ATCC 29906 it was >64¤. Further, the figures for the “Intrinsic MIC in CAMH” value in [1] and in test [2] were 32¤ and 2¤, respectively.

Take `COc1cc(Cc2cnc(N)nc2N)cc(OC)c1OC` [TMP, reference compound]: the “Intrinsic MIC in CAMH” value is recorded as >64¤ with P. aeruginosa ATCC 27853; 0.5¤ in the test on E. coli ATCC 25922; <0.125¤ with E. coli N43; 0.5¤ with E. coli W4573; 0.25¤ with K. pneumoniae ATCC 10031; 2¤ in the test with K. pneumoniae ATCC 13883. For the same molecule, the “Intrinsic MIC in CAMH” value in the test with P. mirabilis ATCC 29906 was 1¤; in [1], 0.5¤; in test [2], 0.5¤.
